For data set [1], the target named is T1, D-3-phosphoglycerate dehydrogenase (Homo sapiens, UniProt O43175).
T1 sequence (O43175 whole entry): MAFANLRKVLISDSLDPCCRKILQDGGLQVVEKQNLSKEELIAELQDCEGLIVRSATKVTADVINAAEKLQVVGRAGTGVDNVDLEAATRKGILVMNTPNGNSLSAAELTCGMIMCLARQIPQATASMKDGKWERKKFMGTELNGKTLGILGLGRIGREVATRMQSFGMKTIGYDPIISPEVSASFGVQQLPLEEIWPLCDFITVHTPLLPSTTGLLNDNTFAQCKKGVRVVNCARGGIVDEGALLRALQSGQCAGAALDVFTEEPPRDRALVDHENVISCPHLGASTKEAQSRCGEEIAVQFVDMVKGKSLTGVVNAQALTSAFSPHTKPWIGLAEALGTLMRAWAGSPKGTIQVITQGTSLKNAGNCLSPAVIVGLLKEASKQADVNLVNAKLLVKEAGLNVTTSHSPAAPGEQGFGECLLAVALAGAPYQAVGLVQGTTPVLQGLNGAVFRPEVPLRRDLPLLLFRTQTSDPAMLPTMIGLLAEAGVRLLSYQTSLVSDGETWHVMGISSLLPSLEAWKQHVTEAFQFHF
Description: Inhibition of PHGDH (unknown origin) preincubated for 30 mins followed by substrate addition and measured after 5 mins.

A further data set relates to MDA-MB-468. Description: Antiproliferative activity against human MDA-MB-468 cells expressing PHGDH assessed as reduction in cell viability measured for 72 hrs by CCK-8 assay. The note with it: MDA-MB-468, 72 h. The format is functional, cell-based. In general terms: Formazan colour is commonly taken as a measure of viable cells.
The test system of a further data set is MCF-10A. As to the kind of experiment: Antiproliferative activity against human MCF-10A cells assessed as reduction in cell viability measured for 72 hrs by CCK-8 assay. The format is functional, cell-based.
Data set [2] deals with T1, D-3-phosphoglycerate dehydrogenase. As to the kind of experiment: Inhibition of wild type PHGDH (unknown origin) preincubated for 30 mins followed by substrate addition and measured after 5 mins.
Data set [3] deals with D-3-phosphoglycerate dehydrogenase (Homo sapiens, UniProt O43175, D175A). Description: Inhibition of PHGDH D175A mutant (unknown origin) preincubated for 30 mins followed by substrate addition and measured after 5 mins.
A short description of data set [4]: Microsomal stability in human liver microsomes assessed as half life measured upto 60 mins by HPLC-MS/MS analysis. The class given is ADME, Microsome.
A short description of data set [5]: Microsomal stability in rat liver microsomes assessed as half life measured upto 60 mins by HPLC-MS/MS analysis. The format is ADME, Microsome. Background: Liver microsomes are vesicles of endoplasmic reticulum, rich in cytochrome P450 enzymes.
Data set [6] is described as follows: Microsomal stability in mouse liver microsomes assessed as half life measured upto 60 mins by HPLC-MS/MS analysis. The format is ADME, Microsome.
Data set [7] in a line: Microsomal stability in human liver microsomes assessed as intrinsic clearance measured upto 60 mins by HPLC-MS/MS analysis. The format is ADME, Microsome. The settings on record: 1 h.
Data set [8] in a line: Microsomal stability in rat liver microsomes assessed as intrinsic clearance measured upto 60 mins by HPLC-MS/MS analysis. The format is ADME, Microsome. The settings on record: 1 h.
Data set [9] in a line: Microsomal stability in mouse liver microsomes assessed as intrinsic clearance measured upto 60 mins by HPLC-MS/MS analysis. The format is ADME, Microsome. The note with it: 1 h.
A further data set concerns BT-20. As to the kind of experiment: Antiproliferative activity against human BT-20 cells expressing PHGDH assessed as reduction in cell viability measured for 72 hrs by CCK-8 assay. The class given is functional, cell-based. The settings on record: BT-20, 72 h.
For a further data set, the system named is PC-9. Description: Antiproliferative activity against human PC-9 cells expressing PHGDH assessed as reduction in cell viability measured for 72 hrs by CCK-8 assay. The format is functional, cell-based. The note with it: PC-9, 72 h.
The test system of another data set is NCI-H1975. As to the kind of experiment: Antiproliferative activity against human NCI-H1975 cells expressing PHGDH assessed as reduction in cell viability measured for 72 hrs by CCK-8 assay. The settings on record: NCI-H1975, 72 h. The format is functional, cell-based.
For another data set, the system named is HCT-116. Description: Antiproliferative activity against human HCT-116 cells expressing PHGDH assessed as reduction in cell viability measured for 72 hrs by CCK-8 assay. The class given is functional, cell-based. The settings on record: HCT-116, 72 h.
Another data set deals with HCC827. Description: Antiproliferative activity against human HCC827 cells expressing PHGDH assessed as reduction in cell viability measured for 72 hrs by CCK-8 assay. The format is functional, cell-based. The note with it: HCC827, 72 h.
Substrate in data set [10]: CC(=O)c1cccc(NS(=O)(=O)c2ccc(C(=O)Nc3nc(-c4cccc(F)c4)cs3)cc2)c1
Description: Competitive inhibition of PHGDH (unknown origin) assessed as Km at 25 uM using NAD+ as substrate preincubated for 30 mins followed by substrate addition and measured after 5 mins by Lineweaver-Burk plot analysis
The note with it: Homo sapiens; dose 25.0 µM, time 35.0 min.

Substrate in data set [11]: CC(=O)c1cccc(NS(=O)(=O)c2ccc(C(=O)Nc3nc(-c4cccc(F)c4)cs3)cc2)c1
Description: Competitive inhibition of PHGDH (unknown origin) assessed as Km at 12.5 uM using NAD+ as substrate preincubated for 30 mins followed by substrate addition and measured after 5 mins by Lineweaver-Burk plot analysis
The settings on record: Homo sapiens; dose 12.5 µM, time 35.0 min.

Substrate in data set [12]: CC(=O)c1cccc(NS(=O)(=O)c2ccc(C(=O)Nc3nc(-c4cccc(F)c4)cs3)cc2)c1
Description: Competitive inhibition of PHGDH (unknown origin) assessed as Km at 6.3 uM using NAD+ as substrate preincubated for 30 mins followed by substrate addition and measured after 5 mins by Lineweaver-Burk plot analysis
The settings on record: Homo sapiens; dose 6.3 µM, time 35.0 min.

Substrate in data set [13]: CC(=O)c1cccc(NS(=O)(=O)c2ccc(C(=O)Nc3nc(-c4cccc(F)c4)cs3)cc2)c1
Description: Competitive inhibition of PHGDH (unknown origin) assessed as Km at 3.1 uM using NAD+ as substrate preincubated for 30 mins followed by substrate addition and measured after 5 mins by Lineweaver-Burk plot analysis
The settings on record: Homo sapiens; dose 3.1 µM, time 35.0 min.

Substrate in data set [14]: CC(=O)c1cccc(NS(=O)(=O)c2ccc(C(=O)Nc3nc(-c4cccc(F)c4)cs3)cc2)c1
Description: Non-competitive inhibition of PHGDH (unknown origin) assessed as Km at 25 uM using 3-PG as substrate preincubated for 30 mins followed by substrate addition and measured after 5 mins by Lineweaver-Burk plot analysis
The note with it: Homo sapiens; dose 25.0 µM, time 35.0 min. The source holds these as a separate data set.

Substrate in data set [15]: CC(=O)c1cccc(NS(=O)(=O)c2ccc(C(=O)Nc3nc(-c4cccc(F)c4)cs3)cc2)c1
Description: Non-competitive inhibition of PHGDH (unknown origin) assessed as Km at 12.5 uM using 3-PG as substrate preincubated for 30 mins followed by substrate addition and measured after 5 mins by Lineweaver-Burk plot analysis
The settings on record: Homo sapiens; dose 12.5 µM, time 35.0 min. This is another data set of the same source.

Substrate in data set [16]: CC(=O)c1cccc(NS(=O)(=O)c2ccc(C(=O)Nc3nc(-c4cccc(F)c4)cs3)cc2)c1
Description: Non-competitive inhibition of PHGDH (unknown origin) assessed as Km at 6.3 uM using 3-PG as substrate preincubated for 30 mins followed by substrate addition and measured after 5 mins by Lineweaver-Burk plot analysis
The note with it: Homo sapiens; dose 6.3 µM, time 35.0 min. The source holds these as a separate data set.

Sequence of D-3-phosphoglycerate dehydrogenase (Homo sapiens, UniProt O43175, D175A) (O43175 2-533 D175A limits assumed): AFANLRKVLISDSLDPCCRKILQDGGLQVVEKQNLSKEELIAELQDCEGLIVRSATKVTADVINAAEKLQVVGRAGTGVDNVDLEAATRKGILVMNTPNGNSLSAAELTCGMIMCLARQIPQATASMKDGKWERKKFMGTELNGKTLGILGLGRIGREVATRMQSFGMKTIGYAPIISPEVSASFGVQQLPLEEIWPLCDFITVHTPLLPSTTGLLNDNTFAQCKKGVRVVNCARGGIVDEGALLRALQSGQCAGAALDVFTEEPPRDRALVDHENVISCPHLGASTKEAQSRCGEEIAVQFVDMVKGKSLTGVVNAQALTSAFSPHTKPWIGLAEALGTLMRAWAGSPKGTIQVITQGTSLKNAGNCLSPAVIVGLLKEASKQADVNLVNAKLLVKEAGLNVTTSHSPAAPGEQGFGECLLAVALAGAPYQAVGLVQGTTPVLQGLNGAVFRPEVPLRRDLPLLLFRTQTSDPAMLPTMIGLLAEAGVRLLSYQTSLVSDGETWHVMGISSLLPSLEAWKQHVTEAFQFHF

As for `Cc1cc(Cl)c2cc(C(=O)N[C@H](CO)c3ccc(S(=O)(=O)CC(=O)O)cc3)n(C)c2c1`, the 50% inhibitory concentration (IC50) (as a rule, the concentration needed to halve the response being measured) in data set [1] is 0.106 µM; in the data set with MDA-MB-468 it was over 100 µM; in the data set on MCF-10A, over 100 µM; in [2], 0.1 µM; in data set [3] it was over 3 µM.
As for `CC(=O)c1cccc(NS(=O)(=O)c2ccc(C(=O)Nc3nc(-c4cccc(C)c4)cs3)cc2)c1`, the IC50 in data set [1] stood at 2.4 µM; in the data set on MDA-MB-468, 3 µM; in the data set with MCF-10A it was 100 µM. In addition, the half-life – broadly, how long it takes for the measured level to halve – in [4] was determined as 1 min; in [5], 0.9 min; in data set [6], 2.5 min. Also, the figures for the CLH in data set [7], in data set [8] and in [9] were 1589.7 mL/min/g, 2378.4 mL/min/g and 835.6 mL/min/g, respectively.
Take `CC(=O)c1cccc(NS(=O)(=O)c2ccc(C(=O)Nc3nc(-c4cccc(O)c4)cs3)cc2)c1`: the IC50 in the data set on MDA-MB-468 is 69.3 µM; with BT-20, 69.3 µM; in the data set with PC-9, over 100 µM; in the data set with NCI-H1975, 89.7 µM; in the data set with HCT-116, 84.7 µM; in the data set on HCC827, 55.7 µM.
For the molecule `COc1cccc(-c2csc(NC(=O)c3ccc(S(=O)(=O)Nc4cccc(C(C)=O)c4)cc3)n2)c1`, the IC50 came to 4.8 µM in data set [1], 4.8 µM in the data set with MDA-MB-468 and 100 µM with MCF-10A. For the same molecule, the half-life in [4] is 0.85 min; in data set [5], 0.84 min; in data set [6], 0.85 min. The CLH in [7] was determined as 2485.8 mL/min/g; in data set [8] it was 2500.2 mL/min/g; in data set [9] it was 2471.9 mL/min/g.
Turning to `COc1ccccc1-c1csc(NC(=O)c2ccc(S(=O)(=O)Nc3cccc(C(C)=O)c3)cc2)n1`, the IC50 was 2.2 µM in data set [1], 5.5 µM in the data set on MDA-MB-468 and over 100 µM in the data set on MCF-10A. Also, the values for the half-life in [4], in data set [5] and in [6] were 26 min, 2.5 min and 13.7 min, respectively. The CLH was determined as 82 mL/min/g in data set [7], 838.8 mL/min/g in data set [8] and 153 mL/min/g in [9].
Take `O=C(Nc1nc(-c2ccccc2)cs1)c1ccc(S(=O)(=O)Nc2cccc(N3CCOCC3)c2)cc1`: the IC50 in [1] is 7.04 µM; with MDA-MB-468, over 100 µM; in the data set on MCF-10A it was over 100 µM.
Take `COC(=O)CS(=O)(=O)c1ccc([C@@H](CO)NC(=O)c2cc3c(Cl)cc(C)cc3n2C)cc1`: the IC50 was 0.162 µM in data set [1], 27.9 µM in the data set on MDA-MB-468 and over 100 µM with MCF-10A.

B1: D-3-phosphoglycerate dehydrogenase (Homo sapiens), O43175 (protein)
chain: T1 sequence (O43175 whole entry)
Consider B1, for which the Km (as a rule, the substrate concentration at which the rate is half of its maximum) in [10] turned out to be 72.9 µM; in [11], 64 µM; in data set [12], 51.6 µM; in [13], 33.4 µM; in data set [14], 448 µM; in [15] it was 495 µM. In addition, the Km in [16] is 510 µM.

(Values after ChEMBL document CHEMBL5316299, “Discovery of Novel Drug-like PHGDH Inhibitors to Disrupt Serine Biosynthesis for Cancer Therapy” (J Med Chem, 2023).)
